Each block holds one compound with its values, some of them ahead of it.
What was measured:
patients with AML = details: cited from earlier work; for CR rates: randomized phase III clinical trials
[1] = Decitabine plasma pharmacokinetics; assay type: in vivo, human; details: for AUC(0-inf) / AUC(0-t) / Cmax: intravenous; for AUC(0-inf): Mean AUCinf (SD); for AUC(0-t): Mean AUCt (SD); for Cmax: Mean Cmax (SD)
[2] = system: patients with AML and/or MDS; details: cited from earlier work
[3] = Vorinostat serum pharmacokinetics; assay type: in vivo, human; details: for AUC(0-inf) / AUC(0-t) / Cmax / half-life: human, oral; for AUC(0-inf): Mean AUCinf (SD); for AUC(0-t): Mean AUCt (SD); for Cmax: Mean Cmax (SD); for half-life: Mean t½ (SD)
[4] = Concurrent schedule: decitabine 20 mg/m^2/day (n = 6), Day 1, cycle 1
[5] = Concurrent schedule: decitabine 20 mg/m^2/day (n = 6), Day 5, cycle 1
[6] = Sequential schedule: decitabine 20 mg/m^2/day (n = 3), Day 1, cycle 1
[7] = Sequential schedule: decitabine 20 mg/m^2/day (n = 3), Day 5, cycle 1
[8] = human, 20 mg/m^2/day, Concurrent schedule: decitabine 20 mg/m^2/day (n = 6), Day 1, cycle 1
[9] = human, 20 mg/m^2/day, Concurrent schedule: decitabine 20 mg/m^2/day (n = 6), Day 5, cycle 1
[10] = human, 20 mg/m^2/day, Sequential schedule: decitabine 20 mg/m^2/day (n = 3), Day 1, cycle 1
[11] = human, 20 mg/m^2/day, Sequential schedule: decitabine 20 mg/m^2/day (n = 3), Day 5, cycle 1
[12] = Concurrent schedule, 100 mg bid days 1–21, Day 15 (n = 1)
[13] = 100 mg, Concurrent schedule, 100 mg bid days 1–21, Day 4 (n = 3)
[14] = 100 mg, Concurrent schedule, 100 mg bid days 1–21, Day 15 (n = 1)
[15] = 100 mg, Sequential schedule, 100 mg bid days 6–21 (n = 4), day 9 of cycle 1
[16] = 200 mg, Concurrent schedule, 200 mg bid days 1–21, Day 4 (n = 10)
[17] = 200 mg, Concurrent schedule, 200 mg bid days 1–21, Day 15 (n = 7)
[18] = 200 mg, Concurrent schedule, 200 mg tid days 1–14, Day 4 (n = 7)
[19] = 200 mg, Sequential schedule, 200 mg bid days 6–21 (n = 4), day 9 of cycle 1
[20] = 200 mg, Sequential schedule, 200 mg tid days 6–21 (n = 8), day 9 of cycle 1

Compound: Nc1ncn([C@@H]2O[C@H](CO)[C@@H](O)[C@H]2O)c(=O)n1 [azacitidine]
CR rates (patients with AML): 9–18%

Mean CL (SD) [1, 4]: 202.8 (153.7) L/h/m^2 | Mean t^1/2 (SD) [1, 4]: 0.36 (0.12) h | Mean CL (SD) [1, 5]: 139.6 (55.1) L/h/m^2 | Mean t^1/2 (SD) [1, 5]: 0.40 (0.17) h | Mean CL (SD) [1, 6]: 254.8 (134.3) L/h/m^2 | Mean t^1/2 (SD) [1, 6]: 0.36 (0.05) h | Mean CL (SD) [1, 7]: 226.2 (121.6) L/h/m^2 | Mean Cmax (SD) [1, 7]: 129.9 (87.1) ng/mL | Mean t^1/2 (SD) [1, 7]: 0.42 (0.18) h | AUC(0-inf) [1, 8]: 152 ng·h/mL | AUC(0-inf) [1, 9]: 170 ng·h/mL | AUC(0-inf) [1, 10]: 105 ng·h/mL | AUC(0-inf) [1, 11]: 111 ng·h/mL | AUC(0-t) [1, 8]: 149 ng·h/mL | AUC(0-t) [1, 9]: 166 ng·h/mL | AUC(0-t) [1, 10]: 102 ng·h/mL | AUC(0-t) [1, 11]: 107 ng·h/mL | Cmax [1, 8]: 193 ng/mL | Cmax [1, 9]: 236 ng/mL | Cmax [1, 10]: 137 ng/mL | half-life ([1]; human, iv, 20 mg/m^2/day): ~0.333 h
Compound: Nc1ncn([C@H]2C[C@H](O)[C@@H](CO)O2)c(=O)n1 [decitabine, 5-aza-2’-deoxycytidine]
CR rates (patients with AML): 9–18% | overall response rates (ORRs) (patients with AML; single agent, three multicenter trials (two phase II, one phase III)): 25–30% | complete response [CR] rate (patients with AML; single agent, three multicenter trials): 13–25%

Compound: O=C(CCCCCCC(=O)Nc1ccccc1)NO [vorinostat, suberoylanilide hydroxamic acid]
MTD ([2]; for 14 consecutive days every 21 days): 200 mg bid or 250 mg tid | responses (CR and/or CRi) ([2]; single agent): 4.5–10% | Mean CL/F (SD) ([3]; Concurrent schedule, 100 mg bid days 1–21, Day 4 (n = 3)): 4.35 (1.26) L/min | Mean CL/F (SD) [3, 12]: 2.74 L/min | Mean Cmax (SD) [3, 12]: 226.3 ng/mL | Mean CL/F (SD) ([3]; Concurrent schedule, 200 mg bid days 1–21, Day 4 (n = 10)): 4.02 (1.30) L/min | Mean CL/F (SD) ([3]; Concurrent schedule, 200 mg bid days 1–21, Day 15 (n = 7)): 4.70 (2.45) L/min | Mean CL/F (SD) ([3]; Concurrent schedule, 200 mg tid days 1–14, Day 4 (n = 7)): 2.86 (0.81) L/min | Mean CL/F (SD) ([3]; Sequential schedule, 100 mg bid days 6–21 (n = 4), day 9 of cycle 1): 4.80 (0.79) L/min | Mean CL/F (SD) ([3]; Sequential schedule, 200 mg bid days 6–21 (n = 4), day 9 of cycle 1): 5.57 (5.26) L/min | Mean CL/F (SD) ([3]; Sequential schedule, 200 mg tid days 6–21 (n = 8), day 9 of cycle 1): 5.89 (4.48) L/min | AUC(0-inf) [3, 13]: 407 ng·h/mL | AUC(0-inf) [3, 14]: 609 ng·h/mL | AUC(0-inf) [3, 15]: 352 ng·h/mL | AUC(0-t) [3, 13]: 400 ng·h/mL | AUC(0-t) [3, 14]: 608 ng·h/mL | AUC(0-t) [3, 15]: 276 ng·h/mL | Cmax [3, 13]: 151 ng/mL | Cmax [3, 15]: 117 ng/mL | half-life [3, 13]: 1.04 h | half-life [3, 14]: 0.62 h | AUC(0-inf) [3, 16]: 930 ng·h/mL | AUC(0-inf) [3, 17]: 1010 ng·h/mL | AUC(0-inf) [3, 18]: 1240 ng·h/mL | AUC(0-inf) [3, 19]: 974 ng·h/mL | AUC(0-inf) [3, 20]: 910 ng·h/mL | AUC(0-t) [3, 16]: 734 ng·h/mL | AUC(0-t) [3, 17]: 778 ng·h/mL | AUC(0-t) [3, 18]: 1060 ng·h/mL | AUC(0-t) [3, 19]: 556 ng·h/mL | AUC(0-t) [3, 20]: 743 ng·h/mL | Cmax [3, 16]: 252 ng/mL | Cmax [3, 17]: 246 ng/mL | Cmax [3, 18]: 353 ng/mL | Cmax [3, 19]: 126 ng/mL | Cmax [3, 20]: 263 ng/mL | half-life [3, 17]: 2.34 h | half-life [3, 18]: 2.68 h | half-life [3, 19]: 3.34 h | half-life [3, 20]: 1.65 h

Source: PMC4688006 (Leukemia & lymphoma, 2015)
